Measured values taken from patent US10875874B2, “Ginkgolide B derivative and preparation method and use thereof” (Chengdu Baiyu Ginkgolide Pharmaceuticals Co., Ltd., priority 2015, dated 2020).
Values after ≈ are worked out from the molar mass of the structure shown. Marks after values point to notes of the source that are not given here.

Columns and labels:
[1] = Weekly food intake of SHR rats; assay type: in vivo, rat
Protocol: (§1) 2.1 Grouping and administration of animals: 112 SHR rats (the female and male SHR rats are half and half, and the female rats are not pregnant) with the body weight of 200-250 g are taken, the rats are enabled to adapt to a laboratory for a period of 5 d, blood pressure is measured once at a day to enable the rats to adapt to the environment and detect stimulation. Then, weighing and numbering are carried out, and the SHR rats are equally divided into 14 groups randomly (each group comprises 8 rats), i.e., an SHR rat model control group, a positive control group (captopril, 27 mg/kg), a BZ large-dose group (120 mg/kg/d), a BZ small-dose group (60 mg/kg/d), a BA large-dose group (120 mg/kg/d), a BA small-dose group (60 mg/kg/d), a BL large-dose group (120 mg/kg/d), a BL small-dose group (60 mg/kg/d), a BM large-dose group (120 mg/kg/d), a BM small-dose group (60 mg/kg/d), a BD large-dose group (120 mg/kg/d), a BD small-dose group (60 mg/kg/d), a GB large-dose group (120 mg/kg/d) and a GB small-dose group (60 mg/kg/d). In addition, 8 healthy Wistar rats are taken as a normal control group. Intragastric administration is performed on the rats of each drug group separately according to the above-mentioned doses by 1 mL/100 g body weight, intragastric administration is performed on the rats of the normal control group and the rats of the SHR rat model control group with an equal volume of distilled water, and administration is performed continuously for 8 weeks.
(§2) 2.2 General state: during observation, conditions such as mind, water drinking, food intake, bowel movement, hair color, body weight and range of motion of rats are observed. Irritable degrees of the rats are divided into III levels: a level I means that the rats are free of obvious response when necks of the rats are seized; a level II means that the rats scream and startle when the necks of the rats are seized; and a level III means that the rats bite or rats of same cages frequently fight when the necks of the rats are seized.
(§3) 3.1 Influence on general state of spontaneously hypertensive rats: the rats of the normal control group are normal in food intake, drinking and motion conditions, sensitive in response, healthy and glossy in hair color, good in mental state and free of any unusual response; the rats of the SHR model group gradually present that back hair is fluffy, clustered and dim, the appetite is reduced, the body weight is reduced, the mind is dispirited and irritable, and the rats are prone to the behaviors of intense resisting, attacking and so on during administration and blood pressure detection, and irritable degrees are mostly changed to a level II and a level III from a level I; and after single administration of ginkgolide B and derivatives thereof, behavioral general state observations of rats of each group are free of obvious difference from those of the model control group.

[2] = tested on: spontaneously hypertensive rats (SHR); experiment: Caudal artery systolic pressure of spontaneously hypertensive rats, single administration; assay type: in vivo, rat; settings: x ± s, n = 8
Protocol: as §1
(§4) 2.3 Blood pressure measuring: caudal artery systolic pressure of rats is measured with a Bp-6 noninvasive blood pressure measuring system. Under the condition that the rats are calm, the systolic pressure is continuously measured for 3 times, and the average value of the measured systolic pressure is taken as a pressure measuring result. Observation indexes: (1) single-administration pressure lowering effect: blood pressure of the rats is measured before administration and blood pressure conditions are measured 30 min, 60 min, 90 min and 120 min after first administration; and (2) continuous-administration pressure lowering condition: blood pressure is separately measured 30 min after administration at 1 d, 7 d, 13 d, 19 d, 25 d, 35 d, 49 d and 56 d, the blood pressure is repeatedly measured for 3 times at a day, and the average value of obtained values is taken as a final blood pressure value.

Water solubility test = settings: purified water, thermodynamic from solid
Protocol: Measuring method: samples are ground to obtain fine powder, target compounds are quantitatively weighed, the weighed compounds are added into purified water, and the solubility of the compounds is investigated by ultrasonics.

[3] = tested on: spontaneously hypertensive rats (SHR); experiment: Caudal artery systolic pressure of spontaneously hypertensive rats, 8 weeks of continuous medication; assay type: in vivo, rat; settings: x ± s, n = 8
Protocol: as §1, §4

[4] = Weekly body weight of SHR rats; assay type: in vivo, rat
Protocol: as §1, §2, §3

[5] = 60 mg/kg/d intragastric, week 0
[6] = 60 mg/kg/d intragastric, week 1
[7] = 60 mg/kg/d intragastric, week 2
[8] = 60 mg/kg/d intragastric, week 3
[9] = 60 mg/kg/d intragastric, week 4
[10] = 60 mg/kg/d intragastric, week 5
[11] = 60 mg/kg/d intragastric, week 6
[12] = 60 mg/kg/d intragastric, week 7
[13] = 60 mg/kg/d intragastric, week 8
[14] = 120 mg/kg/d intragastric, week 0
[15] = 120 mg/kg/d intragastric, week 1
[16] = 120 mg/kg/d intragastric, week 2
[17] = 120 mg/kg/d intragastric, week 3
[18] = 120 mg/kg/d intragastric, week 4
[19] = 120 mg/kg/d intragastric, week 5
[20] = 120 mg/kg/d intragastric, week 6
[21] = 120 mg/kg/d intragastric, week 7
[22] = 120 mg/kg/d intragastric, week 8

## CC(=O)Oc1ccccc1C(=O)O[C@H]1C(=O)O[C@H]2O[C@]34C(=O)OC5C[C@@H](C(C)(C)C)C21[C@@]53[C@@H](O)[C@@H]1OC(=O)[C@@H](C)[C@@]14O (some centres unmarked) [BA]
[1]; [5]
  Average dairy food intake: 17.9 g/day
[1]; [6]
  Average dairy food intake: 18.6^▴ g/d
[1]; [7]
  Average dairy food intake: 19.8^▴ g/d
[1]; [8]
  Average dairy food intake: 19.6^▴ g/d
[1]; [9]
  Average dairy food intake: 18.9^▴ g/d
[1]; [10]
  Average dairy food intake: 20.7^▴▴ g/d
[1]; [11]
  Average dairy food intake: 22.3^▴▴ g/d
[1]; [12]
  Average dairy food intake: 24.6^▴▴ g/d
[1]; [13]
  Average dairy food intake: 25.5^▴▴ g/d
[1]; [14]
  Average dairy food intake: 18.1 g/day
[1]; [15]
  Average dairy food intake: 19.8^▴ g/d
[1]; [16]
  Average dairy food intake: 20.1^▴▴ g/d
[1]; [17]
  Average dairy food intake: 20.8^▴▴ g/d
[1]; [18]
  Average dairy food intake: 21.6^▴▴ g/d
[1]; [19]
  Average dairy food intake: 23.0^▴▴ g/d
[1]; [20]
  Average dairy food intake: 24.5^▴▴ g/d
[1]; [21]
  Average dairy food intake: 25.9^▴▴ g/d
[1]; [22]
  Average dairy food intake: 27.8^▴▴ g/d
[2]; 60 mg/kg intragastric single administration, 30 min
  Systolic pressure: 161.36 ± 9.52 mmHg
[2]; 60 mg/kg intragastric single administration, 60 min
  Systolic pressure: 159.62 ± 14.25 mmHg
[2]; 60 mg/kg intragastric single administration, 90 min
  Systolic pressure: 152.56 ± 11.26 mmHg
[2]; 60 mg/kg intragastric single administration, 120 min
  Systolic pressure: 159.87 ± 11.32 mmHg
[2]; 60 mg/kg intragastric single administration, before administration
  Systolic pressure: 165.35 ± 11.62 mmHg
[2]; 120 mg/kg intragastric single administration, 30 min
  Systolic pressure: 149.69 ± 11.62 mmHg
[2]; 120 mg/kg intragastric single administration, 60 min
  Systolic pressure: 155.68 ± 17.35 mmHg
[2]; 120 mg/kg intragastric single administration, 90 min
  Systolic pressure: 161.30 ± 15.64 mmHg
[2]; 120 mg/kg intragastric single administration, 120 min
  Systolic pressure: 158.25 ± 15.61 mmHg
[2]; 120 mg/kg intragastric single administration, before administration
  Systolic pressure: 163.64 ± 10.31 mmHg
Water solubility test
  solubility: 220 µg/mL (≈ 375 µM)
[3]; 60 mg/kg/d intragastric continuous, 1 d, 30 min after administration
  Systolic pressure: 155.29 ± 10.98 mmHg
[3]; 60 mg/kg/d intragastric continuous, 7 d, 30 min after administration
  Systolic pressure: 158.73 ± 13.82 mmHg
[3]; 60 mg/kg/d intragastric continuous, 13 d, 30 min after administration
  Systolic pressure: 153.64 ± 9.75 mmHg
[3]; 60 mg/kg/d intragastric continuous, 19 d, 30 min after administration
  Systolic pressure: 154.85 ± 9.74 mmHg
[3]; 60 mg/kg/d intragastric continuous, 25 d, 30 min after administration
  Systolic pressure: 151.36 ± 10.58 mmHg
[3]; 60 mg/kg/d intragastric continuous, 35 d, 30 min after administration
  Systolic pressure: 153.72 ± 13.68 mmHg
[3]; 60 mg/kg/d intragastric continuous, 49 d, 30 min after administration
  Systolic pressure: 151.70 ± 13.10 mmHg
[3]; 60 mg/kg/d intragastric continuous, 56 d, 30 min after administration
  Systolic pressure: 153.72 ± 12.54 mmHg
[3]; 60 mg/kg/d intragastric continuous, before administration
  Systolic pressure: 165.35 ± 11.62 mmHg
[3]; 120 mg/kg/d intragastric continuous, 1 d, 30 min after administration
  Systolic pressure: 151.48 ± 9.85 mmHg
[3]; 120 mg/kg/d intragastric continuous, 7 d, 30 min after administration
  Systolic pressure: 150.95 ± 9.68 mmHg
[3]; 120 mg/kg/d intragastric continuous, 13 d, 30 min after administration
  Systolic pressure: 145.30 ± 11.62 mmHg
[3]; 120 mg/kg/d intragastric continuous, 19 d, 30 min after administration
  Systolic pressure: 142.39 ± 12.49 mmHg
[3]; 120 mg/kg/d intragastric continuous, 25 d, 30 min after administration
  Systolic pressure: 145.84 ± 11.46 mmHg
[3]; 120 mg/kg/d intragastric continuous, 35 d, 30 min after administration
  Systolic pressure: 143.67 ± 115.62 mmHg
[3]; 120 mg/kg/d intragastric continuous, 49 d, 30 min after administration
  Systolic pressure: 140.69 ± 14.72 mmHg
[3]; 120 mg/kg/d intragastric continuous, 56 d, 30 min after administration
  Systolic pressure: 139.88 ± 13.04 mmHg
[3]; 120 mg/kg/d intragastric continuous, before administration
  Systolic pressure: 163.64 ± 10.31 mmHg
[4]; [5]
  Body weight: 228.5 g
[4]; [6]
  Body weight: 233.6 g
[4]; [7]
  Body weight: 244.8^▴ g
[4]; [8]
  Body weight: 251.4 g
[4]; [9]
  Body weight: 257.3 g
[4]; [10]
  Body weight: 263.7^▴ g
[4]; [11]
  Body weight: 269.6^▴ g
[4]; [12]
  Body weight: 281.8^▴▴ g
[4]; [13]
  Body weight: 292.8^▴▴ g
[4]; [14]
  Body weight: 231.6 g
[4]; [15]
  Body weight: 251.4^▴▴ g
[4]; [16]
  Body weight: 257.6^▴▴ g
[4]; [17]
  Body weight: 264.1^▴▴ g
[4]; [18]
  Body weight: 271.2^▴▴ g
[4]; [19]
  Body weight: 280.6^▴▴ g
[4]; [20]
  Body weight: 291.2^▴▴ g
[4]; [21]
  Body weight: 305.9^▴▴ g
[4]; [22]
  Body weight: 320.4^▴▴ g
